Reference: US4365989A, “2-Thiocyanomethylthio-4,4-dialkyl-5-substituted-thiazoline fungicides” (Chevron Research Company, priority 1982, dated 1982)

What was measured:
Fusarium Moniliforme = test: Mycelial inhibition, Fusarium; type: cell-based; details: Fusarium verticillioides, 24 hours, relative to standard DIFOLATAN
Procedure: (§1) A number of the compounds of the present invention were evaluated for in-vitro fungicidal effectiveness by means of a mycelial inhibition test. This test is designed to measure the fungitoxic activity of fungicidal chemicals in terms of their degree of inhibition of mycelium growth. Each compound to be tested was dissolved in acetone to 500 ppm concentration. Paper strips were infused with the particular mycelium growth by covering the paper with a potato dextrose broth culture of mycelial suspension. The papers were then placed on potato dextrose agar plates and sprayed by means of a microsprayer with the fungicidal solution. The treated paper strips were incubated at 25° C. and the data is taken after 24 hours. Fungicidal activities are measured by a zone of inhibited mycelial growth from the center of the paper strip. The effectiveness of the compounds tested for fungicidal activity is reported in Table IIa for those compounds which were effective in inhibiting mycelial growth. The activity is reported in terms of [formula]

[1] = tested on: Lambsquarter (Chenopodium album); test: Post-emergent herbicidal test, Lambsquarter; type: in vivo; details: 504 h, post-emergence, 33 micrograms/cm^2, 3 weeks, read-out: Herbicidal Activity Post-Emergence % Control L'Qtr.
Aspergillus Niger = test: Mycelial inhibition, Aspergillus; type: cell-based; details: 24 hours, relative to standard DIFOLATAN, read-out: Mycelial inhibition, % Standard, Asper.
Procedure: as §1

Elodea canadensis = test: Aquatic weeds control, Elodea; type: in vivo; details: 7 to 10 days, read-out: Algicidal Activity % Control Elodea
Procedure: (§2) Representative compounds of the invention were tested as aquatic herbicides and algicides by the following method. The weed test species were Lemna minor, Elodea canadensis and the algae used was Spirulina maxima.
(§3) An acetone solution of the test compound and a small amount of an alkylarylpolyoxyethylene glycol-containing surfactant was prepared. This solution was mixed with a nutrient solution in quantity sufficient to give a concentration of 2 ppm. Eight oz. plastic cups were filled with 150 ml of this solution. A sample of the test, Lemna and Elodea, was added together to each cup. Forty ml of Spirulina culture with the 2 ppm treatment was placed in 11/2 oz plastic cups (#4 glass vials used after June 9, 1980). The containers were then placed in an illuminated environment maintained at a temperature of about 20° C. for incubation. The containers were observed periodically for growth (as compared to an untreated check). The effectiveness of the test compound was determined based on a final observation of growth after 7 to 10 days. The results of the test on a 0-to-100 basis--0 indicating no effectiveness and 100 indicating complete effectiveness--are reported in Table IV.

[2] = tested on: Pigweed (Amaranthus retraflexus); test: Post-emergent herbicidal test, Pigweed; type: in vivo; details: 504 h, post-emergence, 33 micrograms/cm^2, 3 weeks
Botrytis Cineria = test: Mycelial inhibition, Botrytis; type: cell-based; details: 24 hours, relative to standard DIFOLATAN
Procedure: as §1

Soybean [3] = test: Pre-emergent herbicidal test, Soybean; type: in vivo; details: Glycine max, 504 h; pre-emergence; 33 micrograms/cm^2; 3 weeks; read-out: Herbicidal Activity Pre-Emergence % Control Soybean
Procedure: (§4) An acetone solution of the test compound was prepared by mixing 750 mg of the compound, 220 mg of a nonionic surfactant and 25 ml of acetone. This solution was added to approximately 125 ml of water containing 156 mg of surfactant.
(§5) Seeds of the test vegetation were planted in a pot of […] and the test solution was sprayed uniformly onto the soil surface at a dose of 33 micrograms/cm^2. The pot was watered and placed in a greenhouse. […] At the end of this period, the herbicidal effectiveness of the compound was rated based on the physiological observations. A 0-to-100 scale was used, 0 representing no phytotoxicity, 100 representing complete kill.

[4] = tested on: Lambsquarter (Chenopodium album); test: Pre-emergent herbicidal test, Lambsquarter; type: in vivo; details: 504 h, pre-emergence, 33 micrograms/cm^2, 3 weeks, read-out: Herbicidal Activity Pre-Emergence % Control L'Qtr.
Procedure: as §4, §5

[5] = tested on: Mustard (Brassica arvensis); test: Post-emergent herbicidal test, Mustard; type: in vivo; details: 504 h, post-emergence, 33 micrograms/cm^2, 3 weeks
Lemna minor = test: Aquatic weeds control, Lemna; type: in vivo; details: 7 to 10 days, read-out: Algicidal Activity % Control Lemna
Procedure: as §2, §3

Spirulina maxima = test: Algae control, Spirulina; type: cell-based; details: Limnospira maxima, 7 to 10 days, read-out: Algicidal Activity % Control Spirulina
Procedure: as §2, §3

Phytophthora infestans = test: whole plant or invertebrate; type: in vivo; details: in Solanum lycopersicum, read-out: % Control Tom. L. Bl.
Rhizoctonia solani = test: Mycelial inhibition, Rhizoctonia; type: cell-based; details: 24 hours, relative to standard DIFOLATAN, read-out: Mycelial inhibition, % Standard, Rhizoc.
Procedure: as §1

Plasmopara viticola = test: Grape Downy Mildew control, detached grape leaves; type: in vivo; details: in Vitis vinifera, Vitis vinifera Emperor detached leaves, read-out: % Control Grape D.M.
Procedure: The compounds of the invention were tested for the control of the grape downy mildew organism Plasmopara viticola. Detached leaves, between 70 and 85 mm in diameter, of 7-week old Vitis vinifera cultivar Emperor grape seedlings were used as hosts. The leaves were sprayed with a 250 ppm solution of the test compound in acetone. The sprayed leaves were dried, inoculated with a spore suspension of the organism, placed in a humid environmental chamber and incubated at 66° to 68° F. and about 100% relative humidity. After incubation for two days, the plants were then held in a greenhouse seven to nine days; then the amount of disease control was determined. The percent disease control provided by a given gest compound was based on the percent disease reduction relative to untreated check plants.

[6] = tested on: Watergrass (Ethinochloa crusgalli); test: Pre-emergent herbicidal test, Watergrass; type: in vivo; details: 504 h; pre-emergence; 33 micrograms/cm^2; 3 weeks
Procedure: as §4, §5

[7] = tested on: Crabgrass (Digitaria sanguinalis); test: Pre-emergent herbicidal test, Crabgrass; type: in vivo; details: 504 h, pre-emergence, 33 micrograms/cm^2, 3 weeks
Procedure: as §4, §5

Soybean [8] = test: Post-emergent herbicidal test, Soybean; type: in vivo; details: Glycine max, 504 h; post-emergence; 33 micrograms/cm^2; 3 weeks; read-out: Herbicidal Activity Post-Emergence % Control Soybean
[9] = tested on: Pigweed (Amaranthus retraflexus); test: Pre-emergent herbicidal test, Pigweed; type: in vivo; details: 504 h, pre-emergence, 33 micrograms/cm^2, 3 weeks
Procedure: as §4, §5

SMILES	inhibition at 500 ppm (Fusarium Moniliforme) [%]	pest or weed control at 33 µg/cm2 [1] [%]	inhibition at 500 ppm (Aspergillus Niger) [%]	activity at 2 ppm (Elodea canadensis) [%]	pest or weed control at 33 µg/cm2 [2] [%]	inhibition at 500 ppm (Botrytis Cineria) [%]	plant injury at 33 µg/cm2 (Soybean [3]) [%]	pest or weed control at 33 µg/cm2 [4] [%]	pest or weed control at 33 µg/cm2 [5] [%]	activity at 2 ppm (Lemna minor) [%]	activity at 2 ppm (Spirulina maxima) [%]	pest or weed control at 250 ppm (Phytophthora infestans) [%]	inhibition at 500 ppm (Rhizoctonia solani) [%]	pest or weed control at 250 ppm (Plasmopara viticola) [%]	pest or weed control at 33 µg/cm2 [6] [%]	pest or weed control at 33 µg/cm2 [7] [%]	plant injury at 33 µg/cm2 (Soybean [8]) [%]	pest or weed control at 33 µg/cm2 [9] [%]
C=C1SC(SCSC#N)=NC1(C)C [Compound 7, 2-Thiocyanomethylthio-4,4-dimethyl-5-methylenethiazoline]	32	55	32	85	35	82	45	60	50	90	90	75	39	50	0	0	0	50
CC1(C)N=C(SCSC#N)SC1=CSc1ccc(Cl)cc1 [Compound 1, 2-thiocyanomethylthio-4,4-dimethyl-5-(4-chlorophenylthio)methylenethiazoline]	0	0	0	0	0	0	0	0	0	0	0	21	0	100	0	0	0	0
CCC1(CC)N=C(SCSC#N)SC1=CBr [Compound 5, 2-thiocyanomethylthio-4,4-diethyl-5-bromo-methylenethiazoline]	0	33	50	55	35	0	0	0	35	0	40	20	82	100	0	0	20	0
C=C1SC(SCSC#N)=NC1(CC)CC [Compound 6, 2-thiocyanomethylthio-4,4-diethyl-5-methylenethiazoline]	31	55	77	0	35	30	30	73	35	0	75	0	89	0	0	0	15	73
C=C1SC(SCSC#N)=NC12CCCCC2 [Compound 8]	0	40	77	80	50	26	0	0	25	60	70	29	71	100	0	0	33	0
CC1(C)N=C(SCSC#N)SC1=C(Cl)Cl [Compound 2, 2-thiocyanomethylthio-4,4-dimethyl-5-dichloromethylenethiazoline]	29	40	107	70	55	32	0	0	63	50	45	0	71	88	0	0	10	0
